# Measurements as given in patent publication US9242984B2, “Pyrazolyl derivatives as Syk inhibitors” (Merck Sharp & Dohme Corp., priority 2012, dated 2016).
# Target: T1, recombinant human Syk (GST-hSyk fusion protein) (Homo sapiens, UniProt P43405)
# T1 construct: purchased Carna Biosciences 08-176
# Assay: Homogeneous Time-Resolved Fluorescence (HTRF) assay for the recombinant human Syk enzyme
# Format: biochemical
# Settings: 10-dose titration, 25 μM ATP; read-out: rhSYK IC50
# Procedure: Syk inhibition may be determined using the following assay protocol:
# Homogeneous Time-Resolved Fluorescence (HTRF) Assay for the Recombinant Human Syk Enzyme:
# A recombinant GST-hSyk fusion protein was used to measure potency of compounds to inhibit human Syk activity. The recombinant human GST-Syk (Carna Biosciences #08-176) (5 pM final concentration) was incubated with various concentrations of the inhibitor diluted in DMSO (0.1% final concentration) for 10 minutes at room temperature in 15 mM Tris-HCl (pH 7.5), 0.01% tween 20, 2 mM DTT in 384 well plate format. To initiate the reaction the biotinylated substrate peptide (250 nM final concentration) that contains the phosphorylation site for Syk was added with magnesium (5 mM final concentration) and ATP (25 μM final concentration). Final volume of the reaction was 10 μL. Phosphorylation of the peptide was allowed to proceed for 45 minutes at room temperature. To quench the reaction and detect the phosphorylated product, 2 nM of a Europium-anti-phosphotyrosine antibody (Perkin Elmer #AD0161) and 70 nM SA-APC (Perkin-Elmer #CR130-100) were added together in 15 mM Tris pH 7.5, 40 mM EDTA, 0.01% tween 20. Final volume of the quenching solution was 10 μL. The resulting HTRF signal was measured after 30 minutes on an EnVision (Perkin-Elmer) reader using a time-resolved fluorescence protocol. IC50 was determined following 10-dose titration (10 μM to 0.508 nM) and four parameter logistic curve fitting using the Merck Assay Data Analyzer. The rhSyk activity (IC50) is expressed as +++(100 nM or less), ++(between 100 and 1000 nM), +(between 1 and 10 μM).
row,IC50 [nM],SMILES
1,1.2,"Cc1cc(Nc2nccc(C(F)(F)F)n2)cc(-c2cnn(C[C@@H]3OC(=O)N[C@H]3C)c2)c1 (single isomer, unassigned) [Example 23.1]"
2,28,"Cc1cc(Nc2nccc(C(F)(F)F)n2)cc(-c2cnn(C3CCNC(=O)CC3)c2)c1 (single isomer, unassigned) [14.1 (enantiomer 1)]"
3,8.6,"Cc1cc(Nc2nccc(C(F)F)n2)cc(-c2cnn(CCNS(C)(=O)=O)c2)c1 [Example 27.1, N-(2-(4-(3-((4-(Difluoromethyl)pyrimidin-2-yl)amino)-5-methylphenyl)-1H-pyrazol-1-yl)ethyl)methanesulfonamide]"
4,4.8,"Cc1cc(Nc2nccc(C)n2)cc(-c2cnn(C3CCCC(O)C3O)c2)c1 (stereo not drawn) [Example 10.9, 3-(4-{3-methyl-5-[(4-methylpyrimidin-2-yl)amino]phenyl}-1H-pyrazol-1-yl)cyclohexane-1,2-diol]"

# Same assay, conditions: IC50 class; 10-dose titration, 25 μM ATP; read-out: rhSYK Activity
row,SMILES,IC50 [nM]
1,"Cc1cc(Nc2nccc(C(C)(F)F)n2)cc(-c2cn[nH]c2)c1 [Example 1.47, 4-(1,1-difluoroethyl)-N-[3-methyl-5-(1H-pyrazol-4-yl)phenyl]pyrimidin-2-amine]",≤ 100
2,"Cc1cc(Nc2nccc(C)n2)cc(-c2cnn(C[C@H](O)C(N)=O)c2)c1 [Example 6.3, (2S)-2-hydroxy-3-(4-{3-methyl-5-[(4-methylpyrimidin-2-yl)amino]phenyl}-1H-pyrazol-1-yl)propanamide]",≤ 100
3,"Cc1cc(Nc2nccc(C(F)F)n2)cc(-c2cnn(Cc3cnc(C)[nH]3)c2)c1 [Example 3.108, 4-(difluoromethyl)-N-(3-methyl-5-{1-[(2-methyl-1H-imidazol-5-yl)methyl]-1H-pyrazol-4-yl}phenyl)pyrimidin-2-amine]",≤ 100
4,"Cc1cc(Nc2nccc(C(F)(F)F)n2)cc(-c2cnn(C3C=CCCC3)c2)c1 (stereo not drawn) [Example 1.5, N-[3-(1-cyclohex-2-en-1-yl-1H-pyrazol-4-yl)-5-methylphenyl]-4-(trifluoromethyl)-pyrimidin-2-amine]",≤ 100
5,"Cc1cc(Nc2cc(C(F)F)ccn2)nc(-c2cnn(C(C)C3CNC(=O)O3)c2)c1 (stereo not drawn) [Example 3.88, 5-{1-[4-(6-{[4-(difluoromethyl)pyridin-2-yl]amino}-4-methylpyridin-2-yl)-1H-pyrazol-1-yl]ethyl}-1,3-oxazolidin-2-one]",≤ 100
6,"Cc1cc(Nc2ncccn2)cc(-c2cnn(Cc3ccc(O)cc3)c2)c1 [Example 2.58, 4-({4-[3-methyl-5-(pyrimidin-2-ylamino)phenyl]-1H-pyrazol-1-yl}methyl)phenol]",≤ 100
7,"Cc1cc(Nc2nccc(C)n2)cc(-c2cnn(CC3(C)CNC(=O)O3)c2)c1 (stereo not drawn) [Example 3.122, 5-methyl-5-[(4-{3-methyl-5-[(4-methylpyrimidin-2-yl)amino]phenyl}-1H-pyrazol-1-yl)methyl]-1,3-oxazolidin-2-one]",≤ 100
8,"Cc1cc(Nc2cc(C(F)(F)F)ccn2)nc(-c2cnn(CC3CNC(=O)O3)c2)c1 (stereo not drawn) [Example 1.29, 5-{[4-(4-methyl-6-{[4-(trifluoromethyl)pyridin-2-yl]amino}pyridin-2-yl)-1H-pyrazol-1-yl]methyl}-1,3-oxazolidin-2-one]",≤ 100
9,"Cc1cc(Nc2nccc(C(F)(F)F)n2)cc(-c2cnn(C(C)C(O)C(N)=O)c2)c1 (stereo not drawn) [Example 7.6, 2-hydroxy-3-[4-(3-methyl-5-{[4-(trifluorometh-yl)pyrimidin-2-yl]amino}-phenyl)-1H-pyrazol-1-yl]butanamide]",≤ 100
10,"Cc1cc(Nc2nccc(C(F)F)n2)cc(-c2cnn(CC3OC(=O)NC3=O)c2)c1 (stereo not drawn) [Example 2.75, 5-{[4-(3-{[4-(difluoromethyl)pyrimidin-2-yl]amino}-5-methylphenyl)-1H-pyrazol-1-yl]methyl}-1,3-oxazolidine-2,4-dione]",≤ 100
11,"COC(=O)[C@@H](O)Cn1cc(-c2cc(C)cc(Nc3nccc(C(F)(F)F)n3)c2)cn1 [Example 5.2, methyl (2S)-2-hydroxy-3-[4-(3-methyl-5-{[4-(trifluoromethyl)-pyrimidin-2-yl]amino}phenyl)-1H-pyrazol-1-yl]propanoate]",≤ 100
12,"Cc1cc(Nc2cc(C(F)(F)F)ccn2)nc(-c2cnn(C(=O)OC(C)(C)C)c2)c1 [Example 1.11, tert-butyl 4-(4-methyl-6-{[4-(trifluoromethyl)-pyridin-2-yl]amino}-pyridin-2-yl)-1H-pyrazole-1-carboxylate]",≤ 100
13,"Cc1cc(Nc2cc(C(F)F)ccn2)nc(-c2cnn(CC3CNC(=O)O3)c2)c1 (stereo not drawn) [Example 3.83, 5-{[4-(6-{[4-(difluoromethyl)pyridin-2-yl]amino}-4-methylpyridin-2-yl)-1H-pyrazol-1-yl]methyl}-1,3-oxazolidin-2-one]",≤ 100
14,"Cc1cc(Nc2nccc(C(C)(F)F)n2)cc(-c2cnn(CC3OC(=O)NC3(C)C)c2)c1 (stereo not drawn) [Example 3.104, 5-{[4-(3-{[4-(1,1-difluoroethyl)pyrimidin-2-yl]amino}-5-methylphenyl)-1H-pyrazol-1-yl]methyl}-4,4-dimethyl-1,3-oxazolidin-2-one]",≤ 100
15,"Cc1cc(-c2cnn(CC(O)CF)c2)cc(N(CC(O)CF)c2nccc(C(F)(F)F)n2)c1 (racemic) [Example 5.13, 1-fluoro-3-({3-[1-(3-fluoro-2-hydroxy-propyl)-1H-pyrazol-4-yl]-5-methyl-phenyl}-[4-(trifluoromethyl)-pyrimidin-2-yl]-amino)propan-2-ol]",100 to 1000
16,"Cc1cc(Nc2nccc(C(F)F)n2)cc(-c2cnn(CC3OC(=O)NC3(C)C)c2)c1 (stereo not drawn) [Example 3.103, 5-{[4-(3-{[4-(difluoromethyl)pyrimidin-2-yl]amino}-5-methylphenyl)-1H-pyrazol-1-yl]methyl}-4,4-dimethyl-1,3-oxazolidin-2-one]",≤ 100
17,"Cc1cc(Nc2nccc(C(C)C)n2)cc(-c2cnn(CC3CNC(=O)O3)c2)c1 (stereo not drawn) [Example 2.29, 5-{[4-(3-methyl-5-{[4-(1-methylethyl)pyrimidin-2-yl]amino}phenyl)-1H-pyrazol-1-yl]methyl}-1,3-oxazolidin-2-one]",≤ 100
18,"Cc1cc(Nc2cc(C(F)(F)F)ccn2)nc(-c2cnn(C)c2)c1 [Example 1.13, 4-methyl-6-(1-methyl-1H-pyrazol-4-yl)-N-[4-(trifluoromethyl)pyridin-2-yl]pyridin-2-amine]",≤ 100
19,"Cc1cc(Nc2nccc(C)n2)cc(-c2cnn(CCC(N)=O)c2)c1 [Example 2.12, 3-(4-{3-methyl-5-[(4-methylpyrimidin-2-yl)amino]phenyl}-1H-pyrazol-1-yl)propanamide]",≤ 100

# Results, then the molecule that gave them:
row,IC50 [nM],SMILES
1,≤ 100,"Cc1cc(Nc2nccc(C(F)(F)F)n2)cc(-n2cc(C(C)(O)[C@H]3CC[C@H](C(=O)O)CC3)cn2)c1 (stereo partly drawn) [Example 19.13, trans-4-{1-hydroxy-1-[1-(3-methyl-5-{[4-(trifluoromethyl)pyrimidin-2-yl]amino}phenyl)-1H-pyrazol-4-yl]ethyl}cyclohexanecarboxylic acid]"
2,100 to 1000,"Cc1cc(Nc2nccc(C(F)(F)F)n2)cc(-c2cnn(CC3(O)CCN(CC(=O)OC(C)(C)C)CC3)c2)c1 [Example 12.4, tert-butyl (4-hydroxy-4-{[4-(3-methyl-5-{[4-(trifluoro-methyl)pyrimidin-2-yl]amino}phenyl)-1H-pyrazol-1-yl]methyl}-piperidin-1-yl)acetate]"
3,≤ 100,"Cc1cc(Nc2nccc(C(F)(F)F)n2)cc(-c2cnn(C[C@@H]3OC(=O)N[C@H]3C)c2)c1 (single isomer, unassigned) [Example 23.1]"
4,≤ 100,"Cc1cc(Nc2nccc(C)n2)cc(-c2cnn(CC3OC(=O)NC3C)c2)c1 (single isomer, unassigned) [Example 23.8, 4-methyl-5-[(4-{3-methyl-5-[(4-methylpyrimidin-2-yl)amino]phenyl}-1H-pyrazol-1-yl)methyl]-1,3-oxazolidin-2-one]"
5,≤ 100,"Cc1cc(Nc2nccc(C(F)F)n2)cc(-c2cnn(CCNS(C)(=O)=O)c2)c1 [Example 27.1, N-(2-(4-(3-((4-(Difluoromethyl)pyrimidin-2-yl)amino)-5-methylphenyl)-1H-pyrazol-1-yl)ethyl)methanesulfonamide]"
6,≤ 100,"Cc1cc(Nc2nccc(C(F)(F)F)n2)cc(-c2cnn(C3CCC(C(N)=O)CC3)c2)c1 (stereo not drawn) [Example 8.18, 4-[4-(3-methyl-5-{[4-(trifluorometh-yl)pyrimidin-2-yl]amino}phenyl)-1H-pyrazol-1-yl]-cyclohexane-carboxamide]"
7,≤ 100,"Cc1cc(Nc2nccc(OCCO)n2)cc(-c2cnn(C3CCC(C(N)=O)CC3)c2)c1 (stereo not drawn) [Example 8.5, 4-[4-(3-{[4-(2-hydroxy-ethoxy)pyrimidin-2-yl]amino}-5-methylphenyl)-1H-pyrazol-1-yl]-cyclo-hexanecarboxamide]"
8,≤ 100,"Cc1cc(Nc2nccc(C(F)F)n2)cc(-c2cnn(CC(C)(O)CO)c2)c1 (single isomer, unassigned) [Example 25.5, 3-[4-(3-{[4-(difluoromethyl)pyrimidin-2-yl]amino}-5-methylphenyl)-1H-pyrazol-1-yl]-2-methylpropane-1,2-diol]"
9,≤ 100,"Cc1cc(Nc2nccc(C)n2)cc(-c2cnn(C3CCCC(O)C3O)c2)c1 (stereo not drawn) [Example 10.9, 3-(4-{3-methyl-5-[(4-methylpyrimidin-2-yl)amino]phenyl}-1H-pyrazol-1-yl)cyclohexane-1,2-diol]"
10,≤ 100,"Cc1cc(Nc2nccc(C(F)(F)F)n2)cc(-c2cnn(C[C@H](O)C(N)=O)c2)c1 [Example 8.4, (2S)-2-hydroxy-3-[4-(3-methyl-5-{[4-(trifluoromethyl)-pyrimidin-2-yl]amino}-phenyl)-1H-pyrazol-1-yl]propanamide]"
